Source: patent US20150011466A1, “APJ Receptor Compounds” (priority 2012, published 2015)
Read-outs that look alike come from different tables or passages of the source. Each block holds one molecule with its values, some of them ahead of it. Where a SMILES comes first, the peptide text is derived from it. [ ]: non-standard residue; d: D form. The star is where a group is joined. Lithocholoyl = C[C@H](CCC(=O)*)[C@H]1CC[C@H]2[C@@H]3CC[C@@H]4C[C@H](O)CC[C@]4(C)[C@H]3CC[C@]12C; Palmitoyl = CCCCCCCCCCCCCCCC(=O)*

What was measured:
[1] = test system: Human TRex cells not induced, do not express the APJ receptor; experiment: HTRF cAMP assay in Human TRex cells not induced (no APJ receptor); format: cell-based
Gi-coupled receptor APJ = target: T1, Gi-coupled receptor APJ (Homo sapiens, UniProt P35414); experiment: HTRF cAMP assay, inhibition of NKH477 stimulated cAMP in HEK cells stably expressing APJ (APJ-h HEK 293 cells); format: cell-based; settings: for inhibition of NKH477 stimulated increase in cAMP (concentration response curves, FIGS. 1A-1E): HEK cells stably expressing APJ
T1 sequence (P35414 1-380): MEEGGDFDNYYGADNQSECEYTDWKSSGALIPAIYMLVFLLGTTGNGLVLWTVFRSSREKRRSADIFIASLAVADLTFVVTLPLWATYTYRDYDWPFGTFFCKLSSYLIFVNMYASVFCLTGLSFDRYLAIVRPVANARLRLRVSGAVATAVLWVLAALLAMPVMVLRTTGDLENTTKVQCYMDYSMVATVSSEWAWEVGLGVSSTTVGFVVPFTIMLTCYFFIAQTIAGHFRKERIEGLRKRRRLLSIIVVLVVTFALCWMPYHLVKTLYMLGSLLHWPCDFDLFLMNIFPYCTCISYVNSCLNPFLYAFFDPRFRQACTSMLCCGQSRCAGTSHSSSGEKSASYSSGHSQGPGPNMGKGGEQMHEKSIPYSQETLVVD
Excerpt: HTRF (homogeneous time resolved fluorescence) is a technology developed by Cisbio Bioassays based on TR-FRET (time-resolved fluorescence resonance energy transfer). Cisbio Bioassays has developed a wide selection of HTRF-based assays compatible with whole cells, thereby enabling functional assays to run under more physiological conditions. The IP-One assays are competitive immunoassays using cryptate-labeled anti-IP1 monoclonal antibody and d2-labeled IP1. IP1 is a relatively stable downstream metabolite of IP3, and accumulates in cells following Gq receptor activation.
cAMP kits based on a competitive immunoassay using cryptate-labeled anti-cAMP antibody and d2-labeled cAMP were used to assay the effects of APJ compounds of the present invention. […] Cells are treated with […] doxycycline and seeded in all white 96 well plates @ 40 k/well overnight.

APJ receptor = target: T2, APJ receptor (Homo sapiens, UniProt P35414); experiment: HTRF cAMP assay, inhibition of NKH477 stimulated cAMP in Human TRex cells expressing APJ upon doxycycline induction (APJ-hTREX); format: cell-based; settings: for Ranking: class combining EC50 and % histamine; for percent intrinsic activity at 0.3 µM: read-out: % IA (@ 300 nM)
T2 construct: expressed in transfected cells; host or cells: Human TRex cells (doxycycline-inducible)
T2 sequence (P35414 1-380): T1 sequence (P35414 1-380)
Procedure, shortened: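 Cells stimulated with NKH477 and cAMP measured by HTRF competitive immunoassay (cryptate anti-cAMP antibody, d2-labeled cAMP). APJ-hTREX cells induced with […] doxycycline and seeded overnight at 40 k/well.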

[2] = target: T3, APJ receptor (β-arrestin recruitment) (Homo sapiens, UniProt P35414); experiment: β-Arrestin signaling assay (DiscoveRx PathHunter, enzyme fragment complementation); format: cell-based; settings: for β-arrestin recruitment (dose dependent increase in chemiluminescence): in words; for Emax: read-out: β-arrestin Signaling Max Response
T3 sequence (P35414 1-380): T1 sequence (P35414 1-380)
Excerpt: Activation of the β-Arrestin signaling pathway was monitored using the commercially available DiscoveRx PathHunter® assay. This assay employs a homogenous, non-imaging assay format called Enzyme Fragment Complementation (EFC) using β-galactosidase (β-Gal) as the functional reporter. […] EA is fused to β-Arrestin and ED is fused to the GPCR of interest. When the GPCR is activated and β-Arrestin is recruited to the receptor, ED and EA complementation occurs, restoring βGal activity which is measured using chemiluminescent PathHunter® Detection Reagent.

SMILES: CSCC[C@H](NC(=O)[C@@H]1CCCN1C(=O)CNC(=O)[C@H](CCCCN)NC(=O)[C@H](Cc1c[nH]cn1)NC(=O)[C@H](CO)NC(=O)[C@H](CC(C)C)NC(=O)[C@H](CCCNC(=N)N)NC(=O)[C@@H]1CCCN1C(=O)[C@H](CCCNC(=N)N)NC(=O)[C@@H](N)CCC(N)=O)C(=O)N1CCC[C@H]1C(=O)N[C@@H](Cc1ccccc1)C(=O)O [Apelin]
inhibition of NKH477 stimulated cAMP [1]: does not inhibit

SMILES: CCCCCCCCCCCCCCCC(=O)N[C@H](C(=O)N[C@H](C(=O)N[C@@H](Cc1ccccc1)C(=O)N[C@@H](CCCNC(=N)N)C(=O)N[C@@H](CO)C(=O)N[C@@H](CO)C(=O)N[C@@H](CCC(=O)O)C(=O)N[C@H](CCCCN)C(=O)N[C@@H](CCCNC(=N)N)C(=O)N[C@@H](CCCNC(=N)N)C(=O)N[C@@H](CO)C(=O)N[C@@H](C)C(=O)N[C@@H](CC(=O)O)C(=O)N[C@H](C(=O)N[C@@H](Cc1ccccc1)C(=O)N[C@H](C(N)=O)[C@@H](C)CC)[C@@H](C)CC)C(C)C)[C@@H](C)O [Compound 1] (Palmitoyl-TVFRSSE[dK]RRSADIFI-NH2)
inhibition of NKH477 stimulated increase in cAMP (concentration response curves, FIGS. 1A-1E) (Gi-coupled receptor APJ): in a dose dependent manner
Histimine (% vs. 48/40) (Histimine (% vs. 48/40)): 33%
EC50 (APJ receptor): 56.7 nM
Ranking (APJ receptor): ***** (EC50<100 nM and % histamine<35%)
percent intrinsic activity at 0.3 µM (APJ receptor): 81%

SMILES: CCCCCCCCCCCCCCCC(=O)N[C@H](C(=O)N[C@H](C(=O)N[C@@H](Cc1c[nH]cn1)C(=O)N[C@@H](CCCNC(=N)N)C(=O)N[C@@H](CO)C(=O)N[C@@H](CO)C(=O)N[C@@H](CCC(=O)O)C(=O)N[C@H](CCCCN)C(=O)N[C@@H](CCCNC(=N)N)C(=O)N[C@@H](CCCNC(=N)N)C(=O)N[C@@H](CO)C(=O)N[C@@H](C)C(=O)N[C@@H](CC(=O)O)C(=O)N[C@H](C(=O)N[C@@H](Cc1ccccc1)C(=O)N[C@H](C(N)=O)[C@@H](C)CC)[C@@H](C)CC)C(C)C)[C@@H](C)O [Compound 9] (Palmitoyl-TVHRSSE[dK]RRSADIFI-NH2; C-terminus assumed)
EC50 (Gi-coupled receptor APJ): 79 nM
EC50 [2]: 2260 nM
β-arrestin recruitment (dose dependent increase in chemiluminescence) [2]: weakly engaged
Emax [2]: 22%
Histimine (% vs. 48/40) (Histimine (% vs. 48/40)): 36%
EC50 (APJ receptor): 79.6 nM
Ranking (APJ receptor): *** (EC50<100 nM and % histamine>35%)
percent intrinsic activity at 0.3 µM (APJ receptor): 75%

SMILES: CCCCCCCCCCCCCCCC(=O)N[C@@H](CCC(N)=O)C(=O)N[C@H](C(=O)N[C@@H](Cc1ccccc1)C(=O)N[C@@H](CCCNC(=N)N)C(=O)N[C@@H](CO)C(=O)N[C@@H](CO)C(=O)N[C@@H](CCC(=O)O)C(=O)N[C@H](CCCCN)C(=O)N[C@@H](CCCNC(=N)N)C(=O)N[C@@H](CCCNC(=N)N)C(=O)N[C@@H](CO)C(=O)N[C@@H](C)C(=O)N[C@@H](CC(=O)O)C(=O)N[C@H](C(=O)N[C@@H](Cc1ccccc1)C(=O)N[C@H](C(N)=O)[C@@H](C)CC)[C@@H](C)CC)C(C)C [Compound 20] (Palmitoyl-QVFRSSE[dK]RRSADIFI-NH2)
inhibition of NKH477 stimulated increase in cAMP (concentration response curves, FIGS. 1A-1E) (Gi-coupled receptor APJ): in a dose dependent manner
Histimine (% vs. 48/40) (Histimine (% vs. 48/40)): 29%
EC50 (APJ receptor): 60.7 nM
Ranking (APJ receptor): ***** (EC50<100 nM and % histamine<35%)
percent intrinsic activity at 0.3 µM (APJ receptor): 61%

SMILES: CCCCCCCCCCCCCCCC(=O)N[C@H](C(=O)N[C@H](C(=O)N[C@@H](Cc1ccccc1)C(=O)N[C@@H](CCCNC(=N)N)C(=O)N[C@@H](CO)C(=O)N[C@@H](CCC(N)=O)C(=O)N[C@@H](CCC(=O)O)C(=O)N[C@H](CCCCN)C(=O)N[C@@H](CCCNC(=N)N)C(=O)N[C@@H](CCCNC(=N)N)C(=O)N[C@@H](CO)C(=O)N[C@@H](C)C(=O)N[C@@H](CC(=O)O)C(=O)N[C@H](C(=O)N[C@@H](Cc1ccccc1)C(=O)N[C@H](C(N)=O)[C@@H](C)CC)[C@@H](C)CC)C(C)C)[C@@H](C)O [Compound 24] (Palmitoyl-TVFRSQE[dK]RRSADIFI-NH2)
inhibition of NKH477 stimulated increase in cAMP (concentration response curves, FIGS. 1A-1E) (Gi-coupled receptor APJ): in a dose dependent manner
Histimine (% vs. 48/40) (Histimine (% vs. 48/40)): 22%
EC50 (APJ receptor): 42.6 nM
Ranking (APJ receptor): ***** (EC50<100 nM and % histamine<35%)
percent intrinsic activity at 0.3 µM (APJ receptor): 70%

SMILES: CCCCCCCCCCCCCCCC(=O)NCC(=O)N[C@H](C(=O)N[C@@H](Cc1ccccc1)C(=O)N[C@@H](CCCNC(=N)N)C(=O)N[C@@H](CO)C(=O)N[C@@H](CO)C(=O)N[C@@H](CCC(=O)O)C(=O)N[C@H](CCCCN)C(=O)N[C@@H](CCCNC(=N)N)C(=O)N[C@@H](CCCNC(=N)N)C(=O)N[C@@H](CO)C(=O)N[C@@H](C)C(=O)N[C@@H](CC(=O)O)C(=O)N[C@H](C(=O)N[C@@H](Cc1ccccc1)C(=O)N[C@H](C(N)=O)[C@@H](C)CC)[C@@H](C)CC)C(C)C [Compound 68] (Palmitoyl-GVFRSSE[dK]RRSADIFI-NH2)
inhibition of NKH477 stimulated increase in cAMP (concentration response curves, FIGS. 1A-1E) (Gi-coupled receptor APJ): in a dose dependent manner
Histimine (% vs. 48/40) (Histimine (% vs. 48/40)): 21%
EC50 (APJ receptor): 56.4 nM
Ranking (APJ receptor): ***** (EC50<100 nM and % histamine<35%)
percent intrinsic activity at 0.3 µM (APJ receptor): 69%

SMILES: CCCCCCCCCCCCCCCC(=O)N[C@H](C(=O)N[C@H](C(=O)NCC(=O)N[C@@H](CCCNC(=N)N)C(=O)N[C@@H](CO)C(=O)N[C@@H](CO)C(=O)N[C@@H](CCC(=O)O)C(=O)N[C@H](CCCCN)C(=O)N[C@@H](CCCNC(=N)N)C(=O)N[C@@H](CCCNC(=N)N)C(=O)N[C@@H](CO)C(=O)N[C@@H](C)C(=O)N[C@@H](CC(=O)O)C(=O)N[C@H](C(=O)N[C@@H](Cc1ccccc1)C(=O)N[C@H](C(N)=O)[C@@H](C)CC)[C@@H](C)CC)C(C)C)[C@@H](C)O [Compound 70] (Palmitoyl-TVGRSSE[dK]RRSADIFI-NH2)
inhibition of NKH477 stimulated increase in cAMP (concentration response curves, FIGS. 1A-1E) (Gi-coupled receptor APJ): in a dose dependent manner
Histimine (% vs. 48/40) (Histimine (% vs. 48/40)): 29%
EC50 (APJ receptor): 52.5 nM
Ranking (APJ receptor): ***** (EC50<100 nM and % histamine<35%)
percent intrinsic activity at 0.3 µM (APJ receptor): 81%

SMILES: CC[C@H](C)[C@H](NC(=O)[C@H](Cc1ccccc1)NC(=O)[C@@H](NC(=O)[C@H](CC(=O)O)NC(=O)[C@H](C)NC(=O)[C@H](CO)NC(=O)[C@H](CCCNC(=N)N)NC(=O)[C@H](CCCNC(=N)N)NC(=O)[C@H](CCCCN)NC(=O)[C@H](CCC(=O)O)NC(=O)[C@H](CO)NC(=O)[C@H](CO)NC(=O)[C@H](CCCNC(=N)N)NC(=O)[C@H](CC(=O)O)NC(=O)[C@@H](NC(=O)[C@@H](NC(=O)CC[C@@H](C)[C@H]1CC[C@H]2[C@@H]3CC[C@@H]4C[C@H](O)CC[C@]4(C)[C@H]3CC[C@]12C)[C@@H](C)O)C(C)C)[C@@H](C)CC)C(N)=O [Compound 82] (Lithocholoyl-TVDRSSEKRRSADIFI-NH2; N-terminus assumed)
β-arrestin recruitment (dose dependent increase in chemiluminescence) [2]: weakly engaged
Emax [2]: 20%

EC50 ([2]; PathHunter chemiluminescence, read-out: β-arrestin Signaling EC50): 34.4 nM
β-arrestin recruitment (dose dependent increase in chemiluminescence) [2]: weakly engaged
Emax [2]: 47%
Histimine (% vs. 48/40) (Histimine (% vs. 48/40)): 48%
Ranking (APJ receptor): *** (EC50<100 nM and % histamine>35%)
EC50 (APJ receptor; inhibition of NKH477 stimulated cAMP, APJ-hTREX cells, read-out: APJ-hTREX EC50): 11 nM
SMILES: CCCCCCCCCCCCCCCC(=O)N[C@H](C(=O)N[C@H](C(=O)N[C@@H](Cc1ccccc1)C(=O)N[C@@H](CCC(N)=O)C(=O)N[C@@H](CO)C(=O)N[C@@H](CCC(=O)O)C(=O)N[C@H](CCCCN)C(=O)N[C@@H](CCCNC(=N)N)C(=O)N[C@@H](CCCNC(=N)N)C(=O)N[C@@H](CO)C(=O)N[C@@H](C)C(=O)N[C@@H](CC(=O)O)C(=O)N[C@@H](CCC(N)=O)C(=O)N[C@@H](Cc1ccccc1)C(=O)N[C@H](C(N)=O)[C@@H](C)CC)C(C)C)[C@@H](C)O [Compound 87] (Palmitoyl-TVFQSE[dK]RRSADQFI-NH2; C-terminus assumed)
